The results in this text go back to ChEMBL document CHEMBL1138674, “Validation of automated docking programs for docking and database screening against RNA drug targets” (J Med Chem, 2004).

This data set in a line: Dissociation constant of the compound. It counts as physicochemical.
As to `N=C(N)NCCC[C@H](N)C(=O)O` (stereo in doubt; form 1) [ARGININE], the Kd was determined as 60 µM.

Regarding `NC[C@@H]1O[C@H](O[C@H]2[C@@H](O)[C@H](O[C@@H]3[C@@H](O)[C@H](N)C[C@H](N)[C@H]3O[C@H]3O[C@H](CN)[C@@H](O)[C@H](O)[C@H]3N)O[C@@H]2CO)[C@H](N)[C@@H](O)[C@@H]1O` (stereo in doubt; form 1) [FRAMYCETIN], binding was put at a Kd of 1 µM.

Take `N=C(N)NCCC[C@H](N)C(=O)O` (stereo in doubt; form 2) [ARGININE]: binding was characterised by a dissociation constant (Kd) of 1000 µM. Compared with the last compound, the Kd is about 1000-fold higher.

The compound `NC[C@@H]1O[C@H](O[C@H]2[C@@H](O)[C@H](O[C@@H]3[C@@H](O)[C@H](N)C[C@H](N)[C@H]3O[C@H]3O[C@H](CN)[C@@H](O)[C@H](O)[C@H]3N)O[C@@H]2CO)[C@H](N)[C@@H](O)[C@@H]1O` (stereo in doubt; form 2) [FRAMYCETIN] gave a Kd of 0.1 µM.

As for `CC(=O)c1ccc2c(c1)N(CCCN(C)C)c1ccccc1S2` [ACEPROMAZINE], the Kd was 0.1 µM. This lies in the sub-micromolar range.

On to `Nc1ncnc2c1ncn2[C@@H]1O[C@H](COP(=O)(O)O)[C@@H](O)[C@H]1O` [ADENOSINE PHOSPHATE], for which binding was put at a Kd of 2.7 µM.

In the case of `O=C(O)CCCC[C@@H]1SC[C@@H]2NC(=O)N[C@@H]21` [BIOTIN], binding was characterised by a dissociation constant (Kd) of 6 µM.

`NC(=O)NCCC[C@H](N)C(=O)O` [L-CITRULLINE] showed a Kd of 68 µM. This Kd lies about 11-fold higher than the previous one.

In turn, `NC[C@H]1O[C@H](O[C@H]2[C@H](O)[C@@H](O)[C@H](N)C[C@@H]2N)[C@H](N)[C@@H](O)[C@@H]1O` [NEAMINE] registered a Kd of 1 µM.

`NC[C@@H]1O[C@H](O[C@H]2[C@@H](O)[C@H](O[C@@H]3[C@@H](O)[C@H](N)C[C@H](N)[C@H]3O[C@H]3O[C@H](CO)[C@@H](O)[C@H](O)[C@H]3N)O[C@@H]2CO)[C@H](N)[C@@H](O)[C@@H]1O` [PAROMOMYCIN] had a Kd of 0.2 µM. Compared with the last compound, the Kd is about 5-fold lower.

`Cc1cc2nc3c(=O)[nH]c(=O)nc-3n(C[C@H](O)[C@H](O)[C@H](O)COP(=O)(O)O)c2cc1C` [RIBOFLAVIN 5'-PHOSPHATE] returned a Kd of 0.5 µM. This Kd lies about 2.5-fold higher than the previous one.

The compound `Cn1c(=O)c2[nH]cnc2n(C)c1=O` [THEOPHYLLINE] showed a Kd of 0.4 µM.

Regarding `NC[C@H]1O[C@H](O[C@H]2[C@H](O)[C@@H](O[C@H]3O[C@H](CO)[C@@H](O)[C@H](N)[C@H]3O)[C@H](N)C[C@@H]2N)[C@H](N)C[C@@H]1O` [TOBRAMYCIN], the Kd was 0.0009 µM.

GENTAMICIN came in with a Kd of 0.01 µM.

As usually defined, the Kd is the concentration at which binding is half-saturated. Lower therefore signals a tighter complex.
